For 23 compounds, IC50 results are on record in ChEMBL document CHEMBL1124218, “Inhibition of murine thymidylate synthase and human dihydrofolate reductase by 5,8-dideaza analogues of folic acid and aminopterin” (J Med Chem, 1988).

SMILES strings stand for the structures.

The assay deals with Thymidylate synthase (Mus musculus, UniProt P07607). As to the kind of experiment: Inhibitory activity against thymidylate synthase isolated from L1210 leukemia cells. As to conditions: read-out: I50. Format: cell-free.
Sequence of Thymidylate synthase (P07607 whole entry): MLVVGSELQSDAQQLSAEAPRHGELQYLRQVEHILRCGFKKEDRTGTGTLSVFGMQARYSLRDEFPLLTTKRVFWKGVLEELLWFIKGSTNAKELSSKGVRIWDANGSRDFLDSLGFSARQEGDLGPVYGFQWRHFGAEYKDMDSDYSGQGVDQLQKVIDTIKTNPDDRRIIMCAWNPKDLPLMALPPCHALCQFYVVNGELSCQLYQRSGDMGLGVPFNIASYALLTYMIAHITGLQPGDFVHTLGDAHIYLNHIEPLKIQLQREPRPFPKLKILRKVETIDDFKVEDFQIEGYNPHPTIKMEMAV
For `Nc1nc(O)c2cc(CSc3ccc(C(=O)NC(CCC(=O)O)C(=O)O)cc3)ccc2n1` (stereo not drawn), the IC50 came out at 0.22 µM.

`Nc1nc(O)c2cc(COc3ccc(C(=O)NC(CCC(=O)O)C(=O)O)cc3)ccc2n1` (stereo not drawn): the IC50 was determined as 12 µM. For `Nc1nc(O)c2cc(CN(C=O)c3ccc(C(=O)NC(CCC(=O)O)C(=O)O)cc3)ccc2n1` (stereo not drawn), the IC50 is 9.8 µM. Consider `C=CCN(Cc1ccc(C(=O)NC(CCC(=O)O)C(=O)O)cc1)c1ccc2nc(N)nc(N)c2c1` (stereo not drawn), for which the IC50 turned out to be 3.2 µM.

Turning to `C#CCN(Cc1ccc(C(=O)NC(CCC(=O)O)C(=O)O)cc1)c1ccc2nc(N)nc(N)c2c1` (stereo not drawn), the IC50 was determined as 4.4 µM. Consider `C#CCN(Cc1ccc(C(=O)NC(CCC(=O)O)C(=O)O)cc1)c1ccc2nc(N)nc(O)c2c1` (stereo not drawn), for which the IC50 amounted to 8.6 µM. Consider `Nc1nc(N)c2cc(CN(C=O)c3ccc(C(=O)NC(CCC(=O)O)C(=O)O)cc3)ccc2n1` (stereo not drawn), for which the IC50 was more than 10 µM. For `CN(Cc1ccc2nc(N)nc(N)c2c1)c1ccc(C(=O)NC(CCC(=O)O)C(=O)O)cc1` (stereo not drawn) the value was 0.6 µM; for `Nc1nc(N)c2cc(CNc3ccc(C(=O)NC(CCC(=O)O)C(=O)O)cc3)ccc2n1` (stereo not drawn), 5 µM; for `CN(Cc1ccc(C(=O)NC(CCC(=O)O)C(=O)O)cc1)c1ccc2nc(N)nc(N)c2c1` (stereo not drawn), 0.033 µM. For the compound `CN(Cc1ccc2nc(N)nc(O)c2c1)c1ccc(C(=O)NC(CCC(=O)O)C(=O)O)cc1` (stereo not drawn), the IC50 was determined as 0.13 µM.

Take `Cc1c(NCc2ccc(C(=O)NC(CCC(=O)O)C(=O)O)cc2)ccc2nc(N)nc(O)c12` (stereo not drawn): the IC50 worked out at 2.2 µM.

For `Nc1nc(=O)c2cc(NCc3ccc(C(=O)NC(CCC(=O)O)C(=O)O)cc3)ccc2[nH]1` (stereo not drawn), the IC50 turned out to be 1.3 µM. For `Cc1c(NCc2ccc(C(=O)NC(CCC(=O)O)C(=O)O)cc2)ccc2nc(N)nc(N)c12` (stereo not drawn) the value was 0.15 µM; for `Nc1nc(N)c2c(Cl)c(CNc3ccc(C(=O)NC(CCC(=O)O)C(=O)O)cc3)ccc2n1` (stereo not drawn), 0.19 µM; for `Nc1nc(N)c2c(Cl)c(NCc3ccc(C(=O)NC(CCC(=O)O)C(=O)O)cc3)ccc2n1` (stereo not drawn), 0.098 µM. `Nc1nc(O)c2c(Cl)c(NCc3ccc(C(=O)NC(CCC(=O)O)C(=O)O)cc3)ccc2n1` (stereo not drawn): the IC50 was 4 µM. In the case of `Nc1nc(N)c2cc(NCc3ccc(C(=O)NC(CCC(=O)O)C(=O)O)cc3)ccc2n1` (stereo not drawn), the IC50 was found to be 0.55 µM. Consider `C=CCN(Cc1ccc(C(=O)NC(CCC(=O)O)C(=O)O)cc1)c1ccc2nc(N)nc(O)c2c1` (stereo not drawn), for which the IC50 is 6.1 µM. Next, `Nc1nc(N)c2cc(N(C=O)Cc3ccc(C(=O)NC(CCC(=O)O)C(=O)O)cc3)ccc2n1` (stereo not drawn): more than 10 µM; `CN(Cc1ccc(C(=O)NC(CCC(=O)O)C(=O)O)cc1)c1ccc2nc(N)nc(O)c2c1` (stereo not drawn): 0.2 µM; `Nc1nc(O)c2cc(N(C=O)Cc3ccc(C(=O)NC(CCC(=O)O)C(=O)O)cc3)ccc2n1` (stereo not drawn): 11 µM. In the case of `Cc1c(N(C)Cc2ccc(C(=O)NC(CCC(=O)O)C(=O)O)cc2)ccc2nc(N)nc(O)c12` (stereo not drawn), the IC50 came to 0.7 µM.
